In patent publication US20220000875A1, “TOPICAL COMPOSITIONS COMPRISING PENTOXIFYLLINE AND METHODS OF TREATMENT USING THE SAME” (priority 2018, published 2022):

Tests used:
[1] = cited from earlier work
[2] = system: oral ulcers of BD patients; assay: Randomized, open-label, proof-of-concept clinical study of topical PTX muco-adherent gel: oral ulcer healing, ulcer number, pain; format: in vivo, human
Method: (§1) A randomized, open-label, proof-of-concept clinical study was conducted under an FDA Investigational New Drug Application (IND). […] The CLC was administered orally as a pill and dosed as determined by the subject's physician. No less than every 48 hours, subjects' ulcers were photographed and examined using digital image processing to determine ulcer area, over a period of 14 days, which include daily collection of adverse events, ulcer number, and pain scores.
(§2) Inclusion criteria required the recent (<2 days) appearance of a new oral ulcer. Patients on immunosuppressant therapies were excluded from the study.
Patients were contacted daily for 14 consecutive days and were examined in-person no less than every 48 hours except for weekends. On the first day of entry into the study, the largest ulcer was identified and photographed as the “index ulcer”; its location was recorded and it was subsequently photographed at every in-person visit. Photographs were made with a paper ruler showing millimeter graduations lain in the same plane as the ulcer itself. Graphical processing software was used to compute the ulcer area in square millimeters; this software was calibrated from the paper ruler image and required drawing a line around the image of the ulcer margin.
Then, the proportion of patients with undetectable index ulcer (defined as those with an ulcer area of less than 1 mm^2) at day 4 was compared. Lastly, the trend in mean ulcer area over 14 days was compared as well as the results' sensitivity to outliers.
The total number of oral ulcers were also counted at each in-person visit, and the daily average number of oral ulcers were calculated during the treatment period.
The average day zero pain score for each treatment group was normalized to 100%. Then for each treatment group averages were plotted for succeeding days as a percentage of the first day's pain score average.

[3] = Adverse events in the randomized, open-label clinical study; details: adverse event
Method: as §1, §2
All adverse events were reviewed in real time by the treating physician investigator.

[4] = day 2 of treatment, PTX+CLC n = 18, CLC n = 21
[5] = interpreted as dermal manifestations of BD

Compound | plasma levels of metabolite relative to PTX [1] | Day 2 Growth/Shrinkage - Patients with Index Ulcer Growth, % [2, 4] [%] | Day 2 Growth/Shrinkage - Patients with Index Ulcer Growth, Number [2, 4] | Day 2 Growth/Shrinkage - Patients with Index Ulcer Shrinkage, % [2, 4] [%] | Day 2 Growth/Shrinkage - Patients with Index Ulcer Shrinkage, Number [2, 4] | Day 4 Clearance - Patients with Remaining Ulcers, % ([2]; day 4, PTX+CLC n = 18, CLC n = 21) [%] | Day 4 Clearance - Patients with Undetectable Ulcers, % ([2]; day 4, undetectable = ulcer area of less than 1 mm^2, PTX+CLC n = 18, CLC n = 21) [%] | mean index ulcer area by treatment group (trend) ([2]; over 14 days, FIG. 1) | daily average number of oral ulcers during the treatment phase ([2]; two weeks of treatment) | Dysgeusia, % of patients [3] [%] | Dysgeusia, number of patients [3] | Nausea, % of patients [3] [%] | Nausea, number of patients [3] | Vomiting, number of patients [3] | limited dermal rashes, % of patients [3, 5] [%] | limited dermal rashes, number of patients [3, 5]
CC(O)CCCCn1c(=O)c2c(ncn2C)n(C)c1=O (centres unmarked) [Metabolite 1, 1-[5-hydroxyhexyl]-3,7-dimethylxanthine] | five | – | – | – | – | – | – | – | – | – | – | – | – | – | – | –
Cn1cnc2c1c(=O)n(CCCC(=O)O)c(=O)n2C [Metabolite V, 1-[3-carboxypropyl]-3,7-dimethylxanthine] | eight | – | – | – | – | – | – | – | – | – | – | – | – | – | – | –
COc1cc2c(c(OC)c1OC)-c1ccc(OC)c(=O)cc1[C@@H](NC(C)=O)CC2 [CLC, colchicine] | – | 80 | 16 | 19 | 4 | 71 | 29 | first growing then slowly decreasing | 1.89+/−1.36 | 0 | 0 | 10 | 2 | none | 29 | 6
